Assay results: patent US9434711B2 (Janssen Pharmaceutica, NV, priority 2007, dated 2016)
Where two headings read alike, the source gives them in different places.

Tests used:
canine TRPM8 = canine TRPM8 (Canis lupus familiaris, UniProt Q1A7N1); experiment: In Vitro Canine TRPM8 Functional Assay (Ca2+ fluorescence, icilin activation); assay type: cell-based; conditions: for IC50: HEK293 cells stably expressing canine TRPM8, icilin activation, eight-point dose-response, read-out: IC50; for inhibition at 0.2 µM: read-out: % Inh @ 0.2; for inhibition at 0.5 µM: compound at 0.5 μM, read-out: % Inh @ 0.5
Outline: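 Cells (HEK293, stable canine TRPM8) are seeded 24 h before assay. They are then dye-loaded with Calcium 3 at 37 °C followed by room temperature. Compound is added and monitored for 5 min, after which icilin (~80% maximal response) is added.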

Male Sprague Dawley rats = experiment: Chronic Constriction Injury (CCI)-Induced Model of Neuropathic Pain, Acetone-Induced Hypersensitivity; assay type: in vivo, rat; conditions: Rattus norvegicus, po, 30 mg/kg p.o., Na salt form, read-out: Percent Inhibition
Description: Male Sprague Dawley rats (225-450 g; n=5-8/treatment) were used to evaluate the ability of selected compounds of the formula (I) to reverse CCI-induced cold hypersensitivity. Four loose ligatures of 4-0 chromic gut were surgically placed around the left sciatic nerve under inhalation anesthesia as described by Bennett et al (Bennett G J, Xie Y K. Pain 1988, 33(1): 87-107). Fourteen to 35 days following CCI surgery, subjects were placed in elevated observation chambers containing wire mesh floors and five applications of acetone (0.05 mL/application separated by approximately 5 minutes) were spritzed onto the plantar surface of the paw using a multidose syringe. An abrupt withdrawal or lifting of the paw was considered a positive response. The number of positive responses was recorded for each rat over the five trials. Following baseline withdrawal determinations, compounds of formula (I) are administered in an appropriate vehicle, such as hydroxypropyl-β-cyclodextrin (HP β CD), methylcellulose, Methocel, 10% Solutol, or H2O, or the like, by the appropriate route, i.p. or p.o. […] Results are presented as a percent inhibition of […], which was calculated for each subject as [1−(test compound withdrawals/pre-test withdrawals)]×100 and then averaged by treatment.

[1] = compound at 0.2 μM, canine TRPM8, icilin activation
[2] = canine TRPM8, icilin activation

canine TRPM8, sequence (Q1A7N1 1-1104): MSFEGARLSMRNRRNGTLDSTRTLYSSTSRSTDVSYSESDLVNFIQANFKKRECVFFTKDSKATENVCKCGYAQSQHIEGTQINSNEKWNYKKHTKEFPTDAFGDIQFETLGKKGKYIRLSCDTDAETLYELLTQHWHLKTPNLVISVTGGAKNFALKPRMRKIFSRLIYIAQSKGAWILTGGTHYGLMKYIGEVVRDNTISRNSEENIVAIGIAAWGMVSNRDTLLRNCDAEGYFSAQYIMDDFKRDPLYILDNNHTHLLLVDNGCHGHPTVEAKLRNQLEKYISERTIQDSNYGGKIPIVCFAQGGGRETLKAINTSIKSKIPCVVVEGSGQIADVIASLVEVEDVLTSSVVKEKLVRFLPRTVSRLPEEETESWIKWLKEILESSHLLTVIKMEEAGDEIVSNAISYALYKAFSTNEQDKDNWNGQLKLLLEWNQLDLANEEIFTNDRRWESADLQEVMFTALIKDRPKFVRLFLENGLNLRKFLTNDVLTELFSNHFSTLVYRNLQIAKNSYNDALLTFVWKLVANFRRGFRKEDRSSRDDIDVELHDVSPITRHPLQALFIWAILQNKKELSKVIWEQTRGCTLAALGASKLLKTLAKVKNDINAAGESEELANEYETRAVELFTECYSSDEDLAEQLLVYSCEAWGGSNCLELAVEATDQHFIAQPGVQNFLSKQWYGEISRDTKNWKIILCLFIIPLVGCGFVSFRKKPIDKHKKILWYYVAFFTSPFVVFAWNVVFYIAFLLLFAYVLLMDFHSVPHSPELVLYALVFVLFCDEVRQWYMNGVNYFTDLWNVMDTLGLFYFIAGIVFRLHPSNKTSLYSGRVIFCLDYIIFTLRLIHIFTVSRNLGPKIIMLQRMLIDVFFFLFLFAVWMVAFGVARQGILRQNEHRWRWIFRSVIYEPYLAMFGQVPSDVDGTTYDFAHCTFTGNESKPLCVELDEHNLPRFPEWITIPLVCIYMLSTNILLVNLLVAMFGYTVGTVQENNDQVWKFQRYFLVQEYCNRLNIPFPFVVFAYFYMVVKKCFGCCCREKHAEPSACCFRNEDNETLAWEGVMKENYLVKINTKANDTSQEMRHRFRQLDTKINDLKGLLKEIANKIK

| Structure (SMILES) | IC50 (canine TRPM8) [nM] | inhibition at 0.2 µM (canine TRPM8; [1]) [%] | further results |
| --- | --- | --- | --- |
| O=S(=O)(c1ccc(O)cc1)N(Cc1ccc(F)c(C(F)(F)F)c1)c1sc2ccccc2c1Cl [Compound 289, N-(3-Chloro-benzo[b]thiophen-2-yl)-N-(4-fluoro-3-trifluoromethyl-benzyl)-4-hydroxy-benzenesulfonamide] | 27 | 92 |  |
| Cc1c(N(Cc2cccc3cccnc23)S(=O)(=O)c2cccc3cccnc23)sc2ccccc12 [Compound 22, N-(3-Methyl-benzo[b]thiophen-2-yl)-N-(quinolin-8-ylmethyl)-quinoline-8-sulfonamide] | 32 |  | inhibition at 0.5 µM (canine TRPM8; [2]): 98% |
| O=[N+]([O-])c1ccccc1CN(c1cc2ccccc2s1)S(=O)(=O)c1ccccc1 [Compound 55, N-(Benzo[b]thiophen-2-yl)-N-(2-nitro-benzyl)-benzenesulfonamide] | 65.5 |  | inhibition at 0.5 µM (canine TRPM8; [2]): 99% |
| CC(=O)c1c(N(Cc2ccc(F)cc2)S(=O)(=O)c2ccc(Br)cc2)sc2ccccc12 [Compound 730, N-(3-Acetyl-benzo[b]thiophen-2-yl)-4-bromo-N-(4-fluoro-benzyl)benzene-sulfonamide] | 23.6 | 100 |  |
| Cc1c(N(Cc2ccc(F)c(C(F)(F)F)c2)S(=O)(=O)c2nc3ccccc3[nH]2)sc2ccccc12 [Compound 728, N-(3-Methyl-benzo[b]thiophen-2-yl)-N-(4-fluoro-3-trifluoromethyl-benzyl)-1H-benzimidazole-2-sulfonamide] |  | 44 |  |
| CCN(c1sc2ccccc2c1Br)S(=O)(=O)c1ccc(C(=O)O)cc1 [Compound 390, N-(3-Bromo-benzo[b]thiophen-2-yl)-N-(ethyl)-4-carboxy-benzenesulfonamide] |  | 69 |  |
| COC(=O)c1ccc(S(=O)(=O)N(CCCC(F)(F)F)c2sc3ccccc3c2C)cc1 [Compound 630, N-(3-Methyl-benzo[b]thiophen-2-yl)-N-(4,4,4-trifluoro-butyl)-4-carbomethoxy-benzenesulfonamide] | 35.6 | 103 |  |
| CS(=O)(=O)CS(=O)(=O)N(Cc1ccc(F)c(C(F)(F)F)c1)c1cc2ccccc2s1 [Compound 362, N-(Benzo[b]thiophen-2-yl)-N-(4-fluoro-3-trifluoromethyl-benzyl)-C-methanesulfonyl-methanesulfonamide] |  | 67 |  |
| O=S(=O)(c1ccc(Cl)nc1)N(Cc1ccc(F)c(C(F)(F)F)c1)c1cc2ccccc2s1 [Compound 311, N-(Benzo[b]thiophen-2-yl)-N-(4-fluoro-3-trifluoromethyl-benzyl)-2-chloro-pyridin-5-ylsulfonamide] | 148 | 82 |  |
| O=S(=O)(c1ccccc1)N(CCc1ccccc1)c1cc2ccccc2s1 [Compound 115, N-(Benzo[b]thiophen-2-yl)-N-(phenethyl)-benzenesulfonamide] | 79.5 |  | inhibition at 0.5 µM (canine TRPM8; [2]): 95% |
| O=S(=O)(c1cccnc1)N(CCCC(F)(F)F)c1sc2ccccc2c1Br [Compound 407, N-(3-Bromo-benzo[b]thiophen-2-yl)-N-(4,4,4-trifluoro-butyl)-pyridin-3-yl-sulfonamide] | 43 | 96 |  |
| O=S(=O)(c1ccc(-c2nnn[nH]2)cc1)N(CCCC(F)(F)F)c1cc2ccccc2s1 [Compound 425, N-(Benzo[b]thiophen-2-yl)-N-(4,4,4-trifluoro-butyl)-4-(1H-tetrazol-5-yl)-benzenesulfonamide] | 79 | 86 |  |
| O=S(=O)(c1ccsc1)N(Cc1ccc(F)c(C(F)(F)F)c1)c1cc2ccccc2s1 [Compound 78, N-(Benzo[b]thiophen-2-yl)-N-(4-fluoro-3-trifluoromethyl-benzyl)-thiophene-3-sulfonamide] | 22.5 | 102 |  |
| Cc1c(N(Cc2ccc(OC(F)(F)F)cc2)S(=O)(=O)c2ccc(-c3noc(=O)[nH]3)nc2)sc2ccccc12 [Compound 808] |  |  | inhibition at 0.2 µM (canine TRPM8; 0.2 μM compound, HEK293 cells stably expressing canine TRPM8, icilin activation): 102% |
| Cc1c(N(Cc2cccc3cccnc23)S(=O)(=O)c2ccsc2)sc2ccccc12 [Compound 17, N-(3-Methyl-benzo[b]thiophen-2-yl)-N-(quinolin-8-ylmethyl)-thiophene-3-sulfonamide] | 22 |  | inhibition at 0.5 µM (canine TRPM8; [2]): 97% |

Continued by falling IC50 (canine TRPM8), values first:

| IC50 (canine TRPM8) [nM] | inhibition at 0.2 µM (canine TRPM8; [1]) [%] | Structure (SMILES) | further results |
| --- | --- | --- | --- |
| 19 | 101 | CNS(=O)(=O)N(Cc1ccc(F)c(C(F)(F)F)c1)c1sc2ccccc2c1Br [Compound 705, N-(3-Bromo-benzo[b]thiophen-2-yl)-N-(4-fluoro-3-trifluoromethyl-benzyl)-N′-methyl-sulfamide] |  |
| 18.8 | 104 | Cc1c(N(CCC(F)(F)F)S(=O)(=O)c2cccc(C#N)c2)sc2ccccc12 [Compound 550, N-(3-Methyl-benzo[b]thiophen-2-yl)-N-(3,3,3-trifluoro-propyl)-3-cyano-benzenesulfonamide] |  |
| 10 | 99 | O=S(=O)(c1cccnc1)N(Cc1ccc(C(F)(F)F)c(F)c1)c1sc2ccccc2c1Br [Compound 322, N-(3-Bromo-benzo[b]thiophen-2-yl)-N-(3-fluoro-4-trifluoromethyl-benzyl)-pyridin-3-ylsulfonamide] |  |
| 8.6 | 103 | O=c1[nH]c(-c2ccc(S(=O)(=O)N(CCC3CC3)c3sc4ccccc4c3Cl)cc2)no1 [Compound 627, N-(3-Chloro-benzo[b]thiophen-2-yl)-N-(cyclopropyl-ethyl)-4-(5-oxo-4,5-dihydro-[1,2,4]oxadiazol-3-yl)-benzenesulfonamide] |  |
| 4 | 98 | Cc1c(N(CCN2CCCCC2)S(=O)(=O)c2ccccc2)sc2ccccc12 [Compound 96, N-(3-Methyl-benzo[b]thiophen-2-yl)-N-(2-piperidin-1-yl-ethyl)-benzenesulfonamide] |  |
| 2 | 96 | O=C(O)c1ccc(S(=O)(=O)N(Cc2ccc(F)c(C(F)(F)F)c2)c2cc3ccccc3s2)cc1 [Compound 296, N-(Benzo[b]thiophen-2-yl)-N-(4-fluoro-3-trifluoromethyl-benzyl)-4-carboxy-benzenesulfonamide] |  |
| 2 | 99 | Cc1c(N(Cc2ccc(F)c(C(F)(F)F)c2)S(=O)(=O)c2ccc3c(c2)OCCN3C)sc2ccccc12 [Compound 68, N-(4-Fluoro-3-trifluoromethyl-benzyl)-N-(3-methyl-benzo[b]thiophen-2-yl)-4-methyl-3,4-dihydro-2H-benzo[1,4]oxazine-7-sulfonamide] |  |
| 1.4 | 101 | O=C(O)c1ccc(S(=O)(=O)N(Cc2ccc(OC(F)(F)F)cc2)c2sc3ccccc3c2C2CCC2)cc1 [Compound 756, N-(3-Cyclobutyl-benzo[b]thiophen-2-yl)-N-(4-trifluoromethoxy-benzyl)-4-carboxy-benzenesulfonamide] |  |
| 1 | 101 | Cc1c(N(Cc2ccc(OC(F)F)cc2)S(=O)(=O)c2ccc(C(=O)O)cc2)sc2ccccc12 [Compound 490, N-(3-Methyl-benzo[b]thiophen-2-yl)-N-(4-difluoromethoxy-benzyl)-4-carboxy-benzenesulfonamide] | inhibition in vivo at 30 mg/kg (Male Sprague Dawley rats; 1 h, HPbCD, pretreatment 1 hr): 23% |
| 1 | 101 | Cc1c(N(Cc2ccc(F)c(F)c2)S(=O)(=O)c2ccc(C(=O)O)cc2)sc2ccccc12 [Compound 488, N-(3-Methyl-benzo[b]thiophen-2-yl)-N-(3,4-difluoro-benzyl)-4-carboxy-benzenesulfonamide] | inhibition in vivo at 30 mg/kg (Male Sprague Dawley rats; 2 h, HPbCD, pretreatment 2 hr): 43% |
| 0.9 | 101 | O=C(O)c1ccc(S(=O)(=O)N(Cc2ccc(OC(F)(F)F)cc2)c2sc3ccccc3c2C2CC2)cc1 [Compound 755, N-(3-Cyclopropyl-benzo[b]thiophen-2-yl)-N-(4-trifluoromethoxyl-benzyl)-4-carboxy-benzenesulfonamide] |  |
| 0.7 | 101 | Cc1c(N(Cc2ccc(C(F)(F)F)cc2)S(=O)(=O)c2ccc(C(=O)O)cc2)sc2ccccc12 [Compound 518, N-(3-Methyl-benzo[b]thiophen-2-yl)-N-(4-trifluoromethyl-benzyl)-4-carboxy-benzenesulfonamide] |  |
| 0.4 | 101 | Cc1c(N(Cc2ccc(C(F)(F)F)c(F)c2)S(=O)(=O)c2ccc(C(=O)O)cc2)sc2ccccc12 [Compound 497, N-(3-Methyl-benzo[b]thiophen-2-yl)-N-(3-fluoro-4-trifluoromethyl-benzyl)-4-carboxy-benzenesulfonamide] | inhibition in vivo at 30 mg/kg (Male Sprague Dawley rats; 4 h, Water, pretreatment 4 hr): 60% |
